This is an account of results in patent US20020086885A1, “Pharmaceutical composition” (priority 1998, published 2002).

Structures can show the parent of a compound that is named as a salt.

For experiment [1], the system named is obese, diabetic KKA^y mice. Particulars: cited from earlier work.
The next experiment has as its system obese rats. Particulars: given together with troglitazone; cited from earlier work.
In experiment [2] the test system is noninsulin-dependent diabetic mellitus (NIDDM) patients. Put plainly: Concomitant administration of pioglitazone hydrochloride and mazindol in NIDDM patients. The experiment is classed as in vivo, human.
Source text: Effects of concomitant administration of pioglitazone hydrochloride and mazindol in noninsulin-dependent diabetic mellitus (NIDDM) patients were studied.

Consider `N=C(N)NCCC(=O)O` [3-Guanidinopropionic acid], for which the “weight gain in mice treated with pioglitazone hydrochloride” value in experiment [1] is reported as “antagonizes in a dose-dependent manner”. As to `C[C@H](Cc1ccc2c(c1)OC(C(=O)[O-])(C(=O)[O-])O2)NC[C@H](O)c1cccc(Cl)c1.[Na+].[Na+]` [CL316243], in the experiment with obese rats, the “weight gain in brown adipose tissues caused by troglitazone” value was “completely inhibited”. In experiment [2] (one NIDDM patient, mazindol 0.5 mg/day oral with placebo, 12 weeks, baseline 60.0 kg), `OC1(c2ccc(Cl)cc2)c2ccccc2C2=NCCN21` (stereo not shown) [mazindol] gave a body weight change of 0.00 kg. As to `CCc1ccc(CCOc2ccc(CC3SC(=O)NC3=O)cc2)nc1` (stereo not shown) [pioglitazone hydrochloride, 5-[4-[2-(5-ethyl-2-pyridyl)ethoxy]benzyl]-2,4-thiazolidinedione], the “body weight increased by” value in experiment [2] (NIDDM patients, pioglitazone hydrochloride alone 45 mg/day oral, 12±2 weeks, means±standard deviation of 50 samples) is 0.72 ± 2.06 kg.
